These compounds were tested against T1, NLRP3 inflammasome (Homo sapiens, UniProt Q96P20) (assay: Evaluation of NLRP3 inflammasome inhibitory activity (inhibition of IL-1β production in THP1-Null cells)). Conditions: 0.5 µmol/L PMA overnight, 1 µg/mL Lipopolysaccharides 3 hours, Nigericin 7.5 µmol/L 1.5 hours, AlphaLISA Human IL-1β.
T1 construct: host or cells: THP1-Null cells (PMA-differentiated, LPS-primed, nigericin-stimulated)
T1 sequence (Q96P20 whole entry): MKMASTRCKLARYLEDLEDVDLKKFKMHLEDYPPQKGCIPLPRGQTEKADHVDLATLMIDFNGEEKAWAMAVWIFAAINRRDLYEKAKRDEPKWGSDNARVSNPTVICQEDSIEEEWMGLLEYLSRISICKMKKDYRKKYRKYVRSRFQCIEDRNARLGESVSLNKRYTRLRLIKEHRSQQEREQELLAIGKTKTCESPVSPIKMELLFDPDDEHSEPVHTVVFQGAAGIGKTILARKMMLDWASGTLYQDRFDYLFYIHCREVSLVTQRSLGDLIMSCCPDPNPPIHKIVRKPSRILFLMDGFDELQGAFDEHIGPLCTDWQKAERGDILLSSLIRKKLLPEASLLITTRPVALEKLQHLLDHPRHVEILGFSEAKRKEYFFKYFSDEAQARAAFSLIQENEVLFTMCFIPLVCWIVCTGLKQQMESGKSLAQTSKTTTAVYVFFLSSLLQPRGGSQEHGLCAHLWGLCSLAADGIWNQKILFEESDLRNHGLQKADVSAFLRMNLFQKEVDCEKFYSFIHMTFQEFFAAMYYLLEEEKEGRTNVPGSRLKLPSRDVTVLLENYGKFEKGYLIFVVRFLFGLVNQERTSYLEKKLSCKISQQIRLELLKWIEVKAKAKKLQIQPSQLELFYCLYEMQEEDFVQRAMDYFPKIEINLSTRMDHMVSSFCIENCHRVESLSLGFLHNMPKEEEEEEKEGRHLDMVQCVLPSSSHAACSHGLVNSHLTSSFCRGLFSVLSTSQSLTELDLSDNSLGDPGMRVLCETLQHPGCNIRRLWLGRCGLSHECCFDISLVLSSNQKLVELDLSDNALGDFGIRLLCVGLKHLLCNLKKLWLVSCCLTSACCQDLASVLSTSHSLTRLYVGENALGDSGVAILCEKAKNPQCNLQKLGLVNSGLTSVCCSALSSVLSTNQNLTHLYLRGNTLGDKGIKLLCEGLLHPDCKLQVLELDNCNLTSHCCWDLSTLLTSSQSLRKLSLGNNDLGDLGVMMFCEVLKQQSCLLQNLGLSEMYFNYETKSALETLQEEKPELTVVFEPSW
Type: cell-based
Experimental: The NLRP3 inflammasome inhibitory activity of test compounds were evaluated on the basis of the inhibitory activity of the IL-1β production in THP1-Null cells (Product Number: thp-null, InvivoGen). Cells were maintained for culture in RPMI-1640 media containing 10% (v/v) fetal bovine serum, 25 mmol/L HEPES, 100 U/mL penicillin, 100 µg/mL streptomycin, 100 µg/mL normocin, and 200 µg/mL hygromycin B (set at 37°C, 5% CO2/95% air) .
Cells were suspended with media for assay containing 0.5 µmol/L PMA (RPMI-1640 media containing 10% (v/v) fetal bovine serum, 100 U/mL penicillin, and 100 µg/mL streptomycin), and the suspended cells were seeded on Corning (registered trademark) 384-well Flat Clear Bottom Black Polystyrene TC-treated Microplates (25,000 cells/25 µL/well), followed by incubation (set at 37°C, 5% CO2/95% air) overnight. The supernatant of the culture was removed, and thereto was added media for assay (25 µL/well) containing 1 µg/mL Lipopolysaccharides (Product Number: L2654, Sigma-Aldrich (registered trademark)). Then, the culture was further incubated for 3 hours (set at 37°C, 5% CO2/95% air) . The supernatant of the culture was removed. Then, a vehicle solution prepared from Opti-MEM (trademark) medium (Product Number: 31985-070, Invitrogen) was added to blank-setting wells and control-setting wells (20 µL/well), followed by incubation for 15 minutes (set at 37°C, 5% CO2/95% air). A solution containing a test compound (20 µL/well) was added to test compound-setting wells. Further, Opti-MEM (trademark) medium containing Nigericin (Product Number: N7143, Sigma-Aldrich (registered trademark)) was added to the control-setting wells and test compound-setting wells (5 µL/well), followed by incubation for 1.5 hours (set at 37°C, 5% CO2/95% air). The final concentration of Nigericin was adjusted to be 7.5 µmol/L. 5 µL/well of Opti-MEM (trademark) medium was added to the blank-setting wells. The supernatant of the culture was cryonically stored (set at -20°C) until measurement of IL-1β.
The amount of IL-1β in the culture supernatant was quantitated with AlphaLISA (registered trademark) Human IL-1β Detection Kit (Product Number: AL220C, Perkin Elmer). Fluorescence intensity was measured with a microplate reader EnSpier (Model number: 2300-00J, Perkin Elmer) or EnSight (Model number: HH34000000, Perkin Elmer) according to procedure manuals attached thereto. Inhibition rates of the test compound-setting wells were calculated on the basis of 100% for the blank-setting wells and 0% for the control-setting wells. IC50 values (i.e., 50% inhibitory concentrations) of the test compounds were calculated by logistic regression analysis.
In the case of `COc1nc2nn(-c3ccc(C4CC4)cc3C(F)F)cc2c(=O)[nH]1` [Example 60], the IC50 is reported as 16 nM. Compound `Cc1cc(C2CC2)cc(C)c1-n1cc2c(=O)[nH]c(OCC(F)F)nc2n1` [Example 68] has an IC50 of 25 nM. `COc1nc2nn(-c3c(C)cc(OC(F)F)cc3C)cc2c(=O)[nH]1` [Example 39, 2-(4-(difluoromethoxy)-2,6-dimethylphenyl)-6-methoxy-2,5-dihydro-4H-pyrazolo[3,4-d]pyrimidin-4-one] was tested, and the IC50 was 18 nM. `CCOc1nc2nn(-c3c(C)cc(C)cc3C)cc2c(=O)[nH]1` [Example 9] showed an IC50 of 23 nM. In the case of `COCc1cc(OC(F)F)cc(C)c1-n1cc2c(=O)[nH]c(OC)nc2n1` [Example 110], the IC50 is reported as 210 nM. Compound `CCOc1nc2nn(-c3c(C)cc(OC)cc3C)cc2c(=O)[nH]1` [Example 51] has an IC50 of 27 nM. `Cc1cc(Br)cc(C)c1-n1cc2c(=O)[nH]c(O[C@@H]3CCOC3)nc2n1` [Example 36] was tested, and the IC50 was 19 nM. `CCc1cc(Br)ccc1-n1cc2c(=O)[nH]c(OC)nc2n1` [Example 70] was tested, and the IC50 was 25 nM. `COCc1cc(Br)cc(C)c1-n1cc2c(=O)[nH]c(OC)nc2n1` [Example 88] showed an IC50 of 44 nM. For `COc1nc2nn(-c3ccc(Cl)cc3CC3CC3)cc2c(=O)[nH]1` [Example 55], the IC50 was 70 nM. Work on `COc1nc2nn(-c3c(C)cc(C(C)(F)F)cc3C)cc2c(=O)[nH]1` [Example 71] yielded an IC50 of 42 nM. `COc1nc2nn(-c3c(C)cc(OC(F)F)cc3Cl)cc2c(=O)[nH]1` [Example 78] was tested, and the IC50 was 40 nM. `Cc1cc(C)c(-n2cc3c(=O)[nH]c(OCC(F)(F)F)nc3n2)c(C)c1` [Example 6] was tested, and the IC50 was 180 nM. With `COc1nc2nn(-c3c(C)cc(C4CC4)cc3OC)cc2c(=O)[nH]1` [Example 29] the IC50 was 54 nM. `COCCOc1nc2nn(-c3c(C)cc(C)cc3C)cc2c(=O)[nH]1` [Example 4] showed an IC50 of 74 nM. `COc1nc2nn(-c3c(C)cc(Br)cc3C#N)cc2c(=O)[nH]1` [Example 101] gave an IC50 of 2400 nM. Work on `COc1nc2nn(-c3ccc(Br)cc3C3CC3)cc2c(=O)[nH]1` [Example 47] yielded an IC50 of 53 nM. With `Cc1cc(Br)cc(C)c1-n1cc2c(=O)[nH]c(OCC3(C#N)CC3)nc2n1` [Example 17] the IC50 was 73 nM. With `CCc1cc(C(C)(F)F)cc(C)c1-n1cc2c(=O)[nH]c(OC)nc2n1` [Example 89] the IC50 was 24 nM. `Cc1cc(Br)cc(C)c1-n1cc2c(=O)[nH]c(OCCC3COC3)nc2n1` [Example 30] gave an IC50 of 51 nM. `COc1nc2nn(-c3c(C)cc(C4CC4)cc3Cl)cc2c(=O)[nH]1` [Example 83] showed an IC50 of 8 nM. `Cc1cc(Br)cc(C)c1-n1cc2c(=O)[nH]c(OC3CCS(=O)(=O)CC3)nc2n1` [Example 44] gave an IC50 of 43 nM. Work on `CCOc1cc(C)c(-n2cc3c(=O)[nH]c(OC)nc3n2)c(C)c1` [Example 94] yielded an IC50 of 200 nM. `COc1nc2nn(-c3c(C)cc(C4CC4)cc3OC(F)F)cc2c(=O)[nH]1` [Example 105] was tested, and the IC50 was 14 nM. In the case of `Cc1cc(Br)cc(C)c1-n1cc2c(=O)[nH]c(OC[C@H]3CCOC3)nc2n1` [Example 111], the IC50 is reported as 50 nM. `Cc1cc(Br)cc(C)c1-n1cc2c(=O)[nH]c(OCCC(C)(C)O)nc2n1` [Example 20] showed an IC50 of 22 nM. With `COc1nc2nn(-c3ccc(C4CC4)cc3C3CC3)cc2c(=O)[nH]1` [Example 56] the IC50 was 18 nM. With `COc1nc2nn(-c3c(C)cc(Br)cc3CF)cc2c(=O)[nH]1` [Example 115] the IC50 was 13 nM. In the case of `COc1nc2nn(-c3c(C)cc(Br)c(OC)c3C)cc2c(=O)[nH]1` [Example 96], the IC50 is reported as 430 nM. `COc1nc2nn(-c3ccc(Br)cc3C(F)(F)F)cc2c(=O)[nH]1` [Example 43] showed an IC50 of 38 nM. `CCOc1nc2nn(-c3c(C)cc(OC(F)F)cc3C)cc2c(=O)[nH]1` [Example 54] showed an IC50 of 13 nM. For `Cc1cc(C2CC2)cc(C)c1-n1cc2c(=O)[nH]c(OC3CCS(=O)(=O)CC3)nc2n1` [Example 46], the IC50 was 33 nM. Work on `CCOc1nc2nn(-c3c(C)cc(Br)cc3C)cc2c(=O)[nH]1` [Example 34] yielded an IC50 of 12 nM. `COCc1cc(C2CC2)cc(C)c1-n1cc2c(=O)[nH]c(OC)nc2n1` [Example 92] gave an IC50 of 21 nM. Work on `COc1nc2nn(-c3c(C)cc(OC)c(Br)c3C)cc2c(=O)[nH]1` [Example 100] yielded an IC50 of 690 nM. `Cc1cc(C2CC2)cc(C)c1-n1cc2c(=O)[nH]c(OCCCS(=O)(=O)C(C)(C)C)nc2n1` [Example 74] showed an IC50 of 3 nM. `Cc1cc(Br)cc(C)c1-n1cc2c(=O)[nH]c(O[C@H]3CCOC3)nc2n1` [Example 37] was tested, and the IC50 was 13 nM. In the case of `COc1nc2nn(-c3c(Cl)cc(C(F)(F)F)cc3OC)cc2c(=O)[nH]1` [Example 15], the IC50 is reported as 1300 nM. `COc1ccc(-n2cc3c(=O)[nH]c(OC)nc3n2)c(C2CC2)c1` [Example 48] was tested, and the IC50 was 190 nM. With `COc1nc2nn(-c3c(C(F)(F)F)nn(C(C)C)c3C)cc2c(=O)[nH]1` [Example 98] the IC50 was 500 nM. Compound `Cc1cc(Br)cc(C)c1-n1cc2c(=O)[nH]c(OC3COC3)nc2n1` [Example 121] has an IC50 of 2400 nM. For `COCC1(COc2nc3nn(-c4c(C)cc(Br)cc4C)cc3c(=O)[nH]2)CC1` [Example 18], the IC50 was 34 nM. Compound `COc1cc(C)c(-n2cc3c(=O)[nH]c(OC)nc3n2)c(C)c1` [Example 13, 6-methoxy-2-(4-methoxy-2,6-dimethylphenyl)-2,5-dihydro-4H-pyrazolo[3,4-d]pyrimidin-4-one] has an IC50 of 22 nM. Compound `Cc1cc(Br)cc(C)c1-n1cc2c(=O)[nH]c(OCCCO)nc2n1` [Example 99] has an IC50 of 12 nM. Compound `COc1nc2nn(-c3c(C)cc(F)cc3C)cc2c(=O)[nH]1` [Example 90] has an IC50 of 740 nM. `COCc1cc(OC)cc(C)c1-n1cc2c(=O)[nH]c(OC)nc2n1` [Example 93] gave an IC50 of 230 nM. Compound `COc1nc2nn(-c3c(C)cc(Cl)cc3C)cc2c(=O)[nH]1` [Example 57] has an IC50 of 58 nM. `COc1nc2nn(-c3c(C)cc(OC(F)F)cc3F)cc2c(=O)[nH]1` [Example 66] showed an IC50 of 78 nM. Work on `Cc1cc(C)c(-n2cc3c(=O)[nH]c(OC(C)C)nc3n2)c(C)c1` [Example 5] yielded an IC50 of 34 nM. With `Cc1cc(Br)cc(C)c1-n1cc2c(=O)[nH]c(OCCC(C)(C)C#N)nc2n1` [Example 109] the IC50 was 67 nM. For `[2H]C([2H])([2H])Oc1nc2nn(-c3ccc(C(F)(F)F)cc3OC([2H])([2H])[2H])cc2c(=O)[nH]1` [Example 10], the IC50 was 61 nM. Work on `COc1cc(C)c(-n2nc3nc(OC)[nH]c(=O)c3c2C2CC2)c(C)c1` [Example 95] yielded an IC50 of 68 nM. Compound `COc1nc2nn(-c3cc(C)ccc3C(F)(F)F)cc2c(=O)[nH]1` [Example 97] has an IC50 of 1200 nM. In the case of `Cc1cc(C2CC2)cc(C)c1-n1cc2c(=O)[nH]c(OCC(F)(F)CO)nc2n1` [Example 106], the IC50 is reported as 29 nM. `COc1nc2nn(-c3c(C)cc(C4(O)CCC4)cc3C)cc2c(=O)[nH]1` [Example 27] was tested, and the IC50 was 990 nM. Compound `CCc1c2c(=O)[nH]c(OC)nc2nn1-c1c(C)cc(OC)cc1C` [Example 91] has an IC50 of 140 nM. `COc1nc2nn(-c3ccc(C4CC4)cc3OC)cc2c(=O)[nH]1` [Example 40] gave an IC50 of 49 nM. Compound `CCOc1nc2nn(-c3c(C)cc(C4CC4)cc3C)cc2c(=O)[nH]1` [Example 50] has an IC50 of 10 nM. Work on `COc1nc2nn(-c3c(C)cc(Br)cc3C)cc2c(=O)[nH]1` [Example 12, 2-(4-bromo-2,6-dimethylphenyl)-6-methoxy-2,5-dihydro-4H-pyrazolo[3,4-d]pyrimidin-4-one] yielded an IC50 of 9 nM. Compound `COc1nc2nn(-c3c(C)cc(C(C)(F)F)cc3Cl)cc2c(=O)[nH]1` [Example 84] has an IC50 of 45 nM. Work on `Cc1cc(C2CC2)cc(C)c1-n1cc2c(=O)[nH]c(OCCCS(=O)(=O)C(C)C)nc2n1` [Example 62] yielded an IC50 of 4 nM. `COc1nc2nn(-c3c(C)cc(C(C)(C)F)cc3C)cc2c(=O)[nH]1` [Example 118] showed an IC50 of 73 nM. Work on `COc1nc2nn(-c3ccc(OC(F)F)cc3C(F)(F)F)cc2c(=O)[nH]1` [Example 63] yielded an IC50 of 80 nM. For `Cc1cc(Br)cc(C)c1-n1cc2c(=O)[nH]c(OCCCCO)nc2n1` [Example 113], the IC50 was 14 nM. Compound `CCc1cc(OC)cc(C)c1-n1cc2c(=O)[nH]c(OC)nc2n1` [Example 86] has an IC50 of 49 nM. `Cc1cc(Br)cc(C)c1-n1cc2c(=O)[nH]c(OCC(C)(C)O)nc2n1` [Example 21] was tested, and the IC50 was 74 nM. Work on `COc1nc2nn(-c3c(C)cc(C4CC4)cc3C)c(I)c2c(=O)[nH]1` [Example 79] yielded an IC50 of 8 nM. In the case of `CCc1cc(Br)cc(C)c1-n1cc2c(=O)[nH]c(OC)nc2n1` [Example 85], the IC50 is reported as 12 nM.

Source: patent EP4671246A1, “6-ALKOXYPYRAZOLOPYRIMIDINE COMPOUND AND PHARMACEUTICAL USE THEREOF” (Japan Tobacco Inc., priority 2023, dated 2024)
